The target of this test is recombinant human GST-Syk (Homo sapiens (Human), UniProt P43405). As to the kind of experiment: Homogeneous Time-Resolved Fluorescence (HTRF) assay for the recombinant human Syk enzyme. It is filed as biochemical. The conditions noted are these: recombinant human GST-Syk 5 pM, ATP 25 μM, read-out: rhSyk IC50. The method in brief: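 HTRF read-out of phosphorylation of a biotinylated Syk-site peptide (250 nM final) by a GST-tagged human Syk fusion. Reaction initiated with ATP at 25 μM final plus 5 mM magnesium final. Compound potency taken from inhibition of human Syk activity.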

`Cc1cc(Nc2cc(C(F)(F)F)ccn2)nc(-c2ccc(NC3CCNCC3)nc2)c1` [Example 5-2]: the IC50 amounted to 6 nM.

For the compound `Cc1cc(Nc2cc(C(F)(F)F)ccn2)nc(-c2ccc(C3(O)CCNCC3)nc2)c1` [Example 5-3], the IC50 was 9 nM. With `CC(=O)N[C@H]1CCN(c2ccc(-c3cc(C)cc(Nc4cc(C(F)(F)F)ccn4)n3)cn2)C1` [Example 6, N-[(3S)-1-(4-methyl-6-{[4-(trifluoromethyl)pyridin-2-yl]amino}-2,3′-bipyridin-6′-yl)pyrrolidin-3-yl]acetamide] the figure was 17 nM. Next, `Cc1cc(Nc2cc(C(F)(F)F)ccn2)nc(-c2ccc(N3CC[C@H](NC(=O)c4ccc5cc[nH]c5c4)C3)nc2)c1` [Example 6-1]: 17 nM; `Cc1cc(Nc2cc(C(F)(F)F)ccn2)nc(-c2ccc(NC3CCN(C(N)=O)CC3)nc2)c1` [Example 7, 4-(4-Methyl-6-(4-(trifluoromethyl)pyridin-2-ylamino)-2,3′-bipyridin-6′-ylamino)piperidine-1-carboxamide]: 4 nM. With `Cc1cc(Nc2cc(C(F)(F)F)ccn2)nc(-c2ccc(N3CCCC(NC(N)=O)C3)nc2)c1` (stereo not shown) [Example 7-1] the figure was 5 nM; with `Cc1cc(Nc2cc(C(F)(F)F)ccn2)nc(-c2ccc(C3(O)CCN(C(=O)c4ccc5cc[nH]c5n4)CC3)nc2)c1` [Example 9, 4-(4-Methyl-6-{[4-(trifluoromethyl)pyridin-2-yl]amino}-2,3′-bipyridin-6′-yl)-1-(1H-pyrrolo[2,3-b]pyridin-6-ylcarbonyl)piperidin-4-ol], 9 nM; with `Cc1cc(Nc2cc(C(F)(F)F)ccn2)nc(-c2ccc(C3(O)CCN(C(=O)c4ccc5cccnc5c4)CC3)nc2)c1` [Example 9-1], 30 nM. Regarding `Cc1cc(Nc2cc(C(F)(F)F)ccn2)nc(-c2ccc(C3(O)CCN(C(=O)c4ccc5cc[nH]c5c4)CC3)nc2)c1` [Example 9-2], the IC50 turned out to be 13 nM. Next, `Cc1cc(Nc2cc(C(F)(F)F)ccn2)nc(-c2ccc(C3(O)CCN(C(=O)c4c[nH]c5cc(C)ccc45)CC3)nc2)c1` [Example 9-3]: 10 nM; `Cc1cc(Nc2cc(C(F)(F)F)ccn2)nc(-c2ccc(C3(O)CCN(C(=O)c4ccc5nc(C)c(C)nc5c4)CC3)nc2)c1` [Example 9-4]: 5 nM. With `Cc1cc(Nc2cc(C(F)(F)F)ccn2)nc(-c2ccc(C3(O)CCN(C(=O)c4[nH]c5ccccc5c4C)CC3)nc2)c1` [Example 9-5] the figure was 112 nM. With `Cc1cc(Nc2cc(C(F)(F)F)ccn2)nc(-c2ccc(C3(O)CCN(C(=O)c4cc(-c5ccncc5)[nH]n4)CC3)nc2)c1` [Example 9-6], the IC50 is 12 nM.

Consider `Cc1cc(Nc2cc(C(F)(F)F)ccn2)nc(-c2ccc(C[C@H]3CC[C@@H](C(=O)O)CC3)nc2)c1` [Example 10 cis isomer, cis-4-[(4-methyl-6-{[4-(trifluoromethyl)pyridin-2-yl]amino}-2,3′-bipyridin-6′-yl)methyl]cyclohexanecarboxylic acid], for which the IC50 came to 1 nM. With `Cc1cc(Nc2cc(C(F)(F)F)ccn2)nc(-c2ccc(C[C@H]3CC[C@H](C(=O)O)CC3)nc2)c1` [Example 10 trans isomer, trans-4-[(4-methyl-6-{[4-(trifluoromethyl)pyridin-2-yl]amino}-2,3′-bipyridin-6′-yl)methyl]cyclohexanecarboxylic acid] the figure was under 0.5 nM. In the case of `Cc1cc(Nc2cc(C(F)(F)F)ccn2)nc(-c2ccc(NC3CCN(C(=O)c4cccc5c4NC(=O)C5)CC3)nc2)c1` [Example 447], the IC50 came out at 6 nM.

The values above are taken from patent publication US9145391B2, “Bipyridylaminopyridines as Syk inhibitors” (Merck Sharp & Dohme Corp., priority 2011, dated 2015).
